# Test results from paper PMC5677370, “Structure-based nuclear import mechanism of histones H3 and H4 mediated by Kap123” (eLife, 2017).
# Assays:
# [1] = tested on: wild-type Kl Kap123; assay: SPR binding of wild-type or mutant H3_1–35-/H4_1–21-NLS peptides to immobilized wild-type Kap123; set-up: species or system Kluyveromyces lactis; conditions: 10 mM HEPES, 150 mM NaCl, 7°C, relative to wild-type; for affinity of mutant H3-NLS toward Kap123: wild-type Kap123 immobilized 7500 RU on CM5, H3_1–35-NLS peptides 0-5 μM
# Method: Figure 5. Surface plasmon resonance analysis of wild-type Kl Kap123 in the presence of wild-type or mutants of H3_1–35-/H4_1–21-NLSs. The biacore diagrams (a) and the normalized bar graph (c) of wild-type Kap123 in the presence of wild-type or mutant H3_1-35-NLS. The wild-type Kap123 was immobilized on a CM5 chip with 7500 RU and the wild-type or mutant H3_1–35-NLS peptides (H3_K14A, H3_K14Q, H3_K23A, H3_K23Q, or H3_K14Q/K23Q) were injected at different concentrations (0, 0.07, 0.15, 0.32, 0.65, 1.25, 2.5, and 5 μM). The biacore diagrams (b) and the bar graph (d) of wild-type Kap123 in the presence of wild-type or mutant H4_1–21-NLS. The wild-type Kap123 was immobilized on a CM5 chip with 7116 RU and the wild-type or mutant H4_1–21-NLS peptides (H4_K16A or H4_K5Q/K12Q) were injected at different concentrations (0, 0.32, 0.62, 1.25, 2.5, 5, and 10 μM). The H4K16Q peptide was used at different concentrations (0, 0.7, 1.5, 3, 6, 12, and 25 uM). See details in Materials and method section. Red-colored sensorgrams represent positive controls of wild-type Kap123, which were injected 2000 nM wild-type Kap123 before and after sample injection (a–b). The relative binding between wild-type Kap123 and mutant peptides was measured at five different concentrations for generating error bars (c–e). (e) The normalized affinity bar graph of H3-/H4-NLS toward wild-type Kap123 was derived from (a) and (b).
# A CM5 chip (GE healthcare) was coated with streptavidin in 10 mM acetate pH 4.5 at a flow rate of 5 μl/min. The biotinylated C-terminal histone H3 peptide (residues 1–35) was synthesized (Anygen, South Korea) and immobilized on the CM5 chip coated with streptavidin with a flow rate of 5 μl/min in the binding buffer (10 mM HEPES, 150 mM NaCl). Various concentrations of the wild-type and mutant Kl Kap123 protein (see figure legends of Figures 3 and 4) were prepared in the binding buffer with 2 mM TCEP and then injected at the flow rate of 30 μl/min in the binding buffer using a T200 instrument (GE Healthcare) at 7°C. After injecting the sample, the chip was regenerated by a regeneration buffer (1 M NaCl and 20 mM NaOH in binding buffer) at a flow rate of 30 μl/min. For measuring the interaction of wild-type Kl Kap123 and mutant histone H3 or H4 peptides, 0.1 μM Kap123 diluted in10mM acetate pH 4.0 was immobilized 7100 RU on the CM5 chip at flow rate of 5 μl/min. Peptides of histone H3 or H4 mutants were injected at a flow rate of 30 μl/min in the binding buffer and the binding was monitored at various concentrations (0, 0.31, 0.62, 1.25, 2.5, 5 and 10 uM) at 7°C. For the H4K16Q peptide, Kap 123 was immobilized with 5100 RU on CM5 chip, and H4K16Q and wild-type H4 peptides (0, 0.7, 1.5, 3, 6, 12 and 25 uM) were injected as analytes at a flow rate of 30 μl/min at 7°C.
# [2] = target: Kapβ2; conditions: ref Soniat et al., 2016; read-out: KD of Kapβ2-H3_1–47-NLS interaction; cited from earlier work
# Text: Accumulated evidence illustrates that cytosolic histones H3 and H4 are acetylated prior to nuclear import and believed to play a role in the translocation process mediated by Kap123 ([Sobel et al., 1994]; [Sobel et al., 1995]; [Loyola et al., 2006]; [Jasencakova et al., 2010]; [Ma et al., 1998]; [Blackwell et al., 2007]; [Kuo et al., 1996]).
# [3] = tested on: nuclear translocation of the H4-NLS-GFP reporter; conditions: GFP reporter assay; ref Blackwell et al., 2007; cited from earlier work
# [4] = tested on: Kap123-H3-NLS; assay: Competition pull-down: pre-assembled MBP-Kap123-H3-NLS challenged by H4-NLS; type: binding; conditions: amylose affinity pull-down, MBP-tagged Kap123 pre-assembled with H3_1–59-Sumo, challenged by H4_1–48-Sumo (wild-type or mutant) 0x, 1x, 2x, 5x, 10x; 30 mM Tris–HCl pH 8.0, 50 mM NaCl, 1 mM DTT, 0.01% NP-40; 90 mins at 4°C; three independent assays
# Method: Figure 6. Competition assay of H3- and H4-NLSs (wild-type H4 and mutant H4^K5Q/K12Q) toward Kap123 association. Competition of H3_1–59- and H4_1–48-Sumo (a) as well as H3_1–59- and H4_1–48 ^K5Q/K12Q-Sumo (b) toward Kap123 binding was monitored by amylose affinity pull-downs using MBP-tagged Kap123. A fixed amount of the pre-assembled complex of MBP-tagged Kap123 and H4_1–48-Sumo was challenged by an increasing amount of H3_1–59-Sumo. The same competition assay was done by using pre-incubated MBP-tagged Kap123-H3_1–59-Sumo and gradually increasing the amount of H4_1–48-Sumo either with wild-type (a) or mutant (b), K5Q/K12Q) H4 sequence. (c–d) The normalized bar graphs of remaining H3_1–59- and H4_1–48-NLS-Sumo after challenged with increased amounts of H4_1–48- and H3_1–59-NLS-Sumo (0x, 1x, 2x, 5x, and 10x) toward Kap123, respectively. Either H4_1–48-NLS-Sumo (c) or H4_1–48^K5Q/K12Q-NLS-Sumo (d) was used for the H3_1–59-NLS-Sumo competition. Three independent competition assays were carried out and the band intensity was measured to calculate the error bar. Figure 6—figure supplement 1. […] (a) Competition of H3_1–59-Sumo using either H4_1–48-Sumo or H4_1–48 ^K5Q/K8Q/K12Q-Sumo toward Kap123 binding was monitored by amylose affinity pull-downs using MBP-tagged Kap123. […] Three independent competition assays were carried out and the band intensity was measured to calculate the error bar. […]
substance,measurement,setting,value
H3 K14A,affinity of mutant H3-NLS toward Kap123,[1]; five concentrations,decreased the affinity toward Kap123
H3 K14Q,affinity of mutant H3-NLS toward Kap123,[1]; five concentrations,decreased the affinity toward Kap123
H3 K23A,affinity of mutant H3-NLS toward Kap123,[1]; five concentrations,decreased the affinity toward Kap123
H3 K23Q,affinity of mutant H3-NLS toward Kap123,[1]; five concentrations,decreased the affinity toward Kap123
H3_1–47-NLS: histone H3 residues 1–47 NLS bound to Kapβ2,Kd,[2],77.1 nM
H4-NLS^K5Q/K8Q/K12Q: tri-acetylation mimic mutant of H4-NLS (H4_1–48-Sumo in competition assay),"nuclear translocation of H4-NLS-GFP reporter, acetylation mimic",[3],dramatically reduced the nuclear translocation
same,competition with H3-NLS for Kap123,[4],no longer competed with H3-NLS in Kap123 interaction
H4-NLS^K16A,affinity of mutant H4-NLS toward Kap123,"[1]; wild-type Kap123 immobilized 7116 RU on CM5, H4_1–21-NLS peptides 0-10 μM, five concentrations",reduced the affinity toward Kap123 although the effect was mild
H4-NLS^K16Q,affinity of H4 K16Q toward Kap123,"[1]; Kap123 immobilized 5100 RU on CM5, H4K16Q 0-25 uM",reduced the affinity toward Kap123 although the effect was mild
"H4_1–48^K5Q/K12Q-Sumo: C-terminal Sumo-tagged histone H4_1–48, K5Q/K12Q",competition with H3-NLS for Kap123,[4],loss of competition
